Assay: xn = mol fraction of the nth substance listed
Conditions: Constant-volume piezometry

CCCCC [pentane] + CCCO
Conditions	mass density [kg/m3]
563.15 K, 15195 kPa, Fluid (supercritical or subcritical phases), x1 = 0.9	353.41
563.15 K, 15944 kPa, Fluid (supercritical or subcritical phases), x1 = 0.8	361.2
563.15 K, 20883 kPa, Fluid (supercritical or subcritical phases), x1 = 0.2	469.34
563.15 K, 22608 kPa, Fluid (supercritical or subcritical phases), x1 = 0.9	406.44
563.15 K, 23762 kPa, Fluid (supercritical or subcritical phases), x1 = 0.8	417.33
563.15 K, 29039 kPa, Fluid (supercritical or subcritical phases), x1 = 0.2	508.42
563.15 K, 36842 kPa, Fluid (supercritical or subcritical phases), x1 = 0.8	465.69
563.15 K, 41493 kPa, Fluid (supercritical or subcritical phases), x1 = 0.2	545.72
573.15 K, 1455 kPa, Gas, x1 = 0.8	22.47
573.15 K, 1761 kPa, Gas, x1 = 0.2	24.87
573.15 K, 2249 kPa, Gas, x1 = 0.8	36.6
573.15 K, 3350 kPa, Gas, x1 = 0.8	58.27
573.15 K, 3774 kPa, Gas, x1 = 0.2	52.88
573.15 K, 4034 kPa, Fluid (supercritical or subcritical phases), x1 = 0.8	73.62
573.15 K, 4329 kPa, Fluid (supercritical or subcritical phases), x1 = 0.9	83.18
573.15 K, 5099 kPa, Fluid (supercritical or subcritical phases), x1 = 0.2	91.19
573.15 K, 5320 kPa, Fluid (supercritical or subcritical phases), x1 = 0.8	106.15
573.15 K, 5748 kPa, Fluid (supercritical or subcritical phases), x1 = 0.9	123.05
573.15 K, 5856 kPa, Fluid (supercritical or subcritical phases), x1 = 0.2	114.08
573.15 K, 6139 kPa, Fluid (supercritical or subcritical phases), x1 = 0.9	133.8
573.15 K, 6637 kPa, Fluid (supercritical or subcritical phases), x1 = 0.8	139.97
573.15 K, 6909 kPa, Fluid (supercritical or subcritical phases), x1 = 0.2	149.98
573.15 K, 7024 kPa, Fluid (supercritical or subcritical phases), x1 = 0.9	163.56
573.15 K, 7062 kPa, Fluid (supercritical or subcritical phases), x1 = 0.8	155.67
573.15 K, 7474 kPa, Fluid (supercritical or subcritical phases), x1 = 0.8	169.37
573.15 K, 7491 kPa, Fluid (supercritical or subcritical phases), x1 = 0.2	175.18
573.15 K, 7658 kPa, Fluid (supercritical or subcritical phases), x1 = 0.8	175.6
573.15 K, 7755 kPa, Fluid (supercritical or subcritical phases), x1 = 0.2	189.17
573.15 K, 7776 kPa, Fluid (supercritical or subcritical phases), x1 = 0.8	180.39
573.15 K, 7805 kPa, Fluid (supercritical or subcritical phases), x1 = 0.9	188.99
573.15 K, 8168 kPa, Fluid (supercritical or subcritical phases), x1 = 0.8	192.69
573.15 K, 8184 kPa, Fluid (supercritical or subcritical phases), x1 = 0.9	201.88
573.15 K, 8351 kPa, Fluid (supercritical or subcritical phases), x1 = 0.2	219.55
573.15 K, 8805 kPa, Fluid (supercritical or subcritical phases), x1 = 0.9	220.14
573.15 K, 8815 kPa, Fluid (supercritical or subcritical phases), x1 = 0.8	213.33
573.15 K, 8859 kPa, Fluid (supercritical or subcritical phases), x1 = 0.2	244.86
573.15 K, 9002 kPa, Fluid (supercritical or subcritical phases), x1 = 0.8	219.08
573.15 K, 9138 kPa, Fluid (supercritical or subcritical phases), x1 = 0.2	258.55
573.15 K, 9198 kPa, Fluid (supercritical or subcritical phases), x1 = 0.9	232.49
573.15 K, 9211 kPa, Fluid (supercritical or subcritical phases), x1 = 0.2	262.25
573.15 K, 9316 kPa, Fluid (supercritical or subcritical phases), x1 = 0.9	235.95
573.15 K, 9432 kPa, Fluid (supercritical or subcritical phases), x1 = 0.2	271.68
573.15 K, 9453 kPa, Fluid (supercritical or subcritical phases), x1 = 0.9	240.34
573.15 K, 9462 kPa, Fluid (supercritical or subcritical phases), x1 = 0.8	234.13
573.15 K, 9562 kPa, Fluid (supercritical or subcritical phases), x1 = 0.9	243.64
573.15 K, 9806 kPa, Fluid (supercritical or subcritical phases), x1 = 0.8	244.74
573.15 K, 9864 kPa, Fluid (supercritical or subcritical phases), x1 = 0.2	289.81
573.15 K, 10272 kPa, Fluid (supercritical or subcritical phases), x1 = 0.2	306.05
573.15 K, 10324 kPa, Fluid (supercritical or subcritical phases), x1 = 0.8	257.93
573.15 K, 10392 kPa, Fluid (supercritical or subcritical phases), x1 = 0.2	310.27
573.15 K, 10713 kPa, Fluid (supercritical or subcritical phases), x1 = 0.2	317.97
573.15 K, 10865 kPa, Fluid (supercritical or subcritical phases), x1 = 0.8	271.86
573.15 K, 11108 kPa, Fluid (supercritical or subcritical phases), x1 = 0.9	281.31
573.15 K, 11531 kPa, Fluid (supercritical or subcritical phases), x1 = 0.2	340.39
573.15 K, 11654 kPa, Fluid (supercritical or subcritical phases), x1 = 0.2	343.17
573.15 K, 11678 kPa, Fluid (supercritical or subcritical phases), x1 = 0.8	287.66
573.15 K, 12021 kPa, Fluid (supercritical or subcritical phases), x1 = 0.9	300.93
573.15 K, 12217 kPa, Fluid (supercritical or subcritical phases), x1 = 0.8	298.45
573.15 K, 12707 kPa, Fluid (supercritical or subcritical phases), x1 = 0.9	311.54
573.15 K, 13246 kPa, Fluid (supercritical or subcritical phases), x1 = 0.8	314.57
573.15 K, 13392 kPa, Fluid (supercritical or subcritical phases), x1 = 0.2	377.65
573.15 K, 13687 kPa, Fluid (supercritical or subcritical phases), x1 = 0.2	382.44
573.15 K, 14239 kPa, Fluid (supercritical or subcritical phases), x1 = 0.9	333.19
573.15 K, 14284 kPa, Fluid (supercritical or subcritical phases), x1 = 0.2	390.25
573.15 K, 14505 kPa, Fluid (supercritical or subcritical phases), x1 = 0.8	333.01
573.15 K, 15392 kPa, Fluid (supercritical or subcritical phases), x1 = 0.8	344.5
573.15 K, 16409 kPa, Fluid (supercritical or subcritical phases), x1 = 0.9	353.22
573.15 K, 16662 kPa, Fluid (supercritical or subcritical phases), x1 = 0.2	417.59
573.15 K, 17250 kPa, Fluid (supercritical or subcritical phases), x1 = 0.8	361.01
573.15 K, 23293 kPa, Fluid (supercritical or subcritical phases), x1 = 0.2	469.08
573.15 K, 24391 kPa, Fluid (supercritical or subcritical phases), x1 = 0.9	406.23
573.15 K, 25613 kPa, Fluid (supercritical or subcritical phases), x1 = 0.8	417.11
573.15 K, 32252 kPa, Fluid (supercritical or subcritical phases), x1 = 0.2	508.13
573.15 K, 39390 kPa, Fluid (supercritical or subcritical phases), x1 = 0.8	465.43

Source: the NIST ThermoML archive (doi:10.1016/j.jct.2016.10.023)
